From US20130261178A1, “PHENOXYPROPANOL DERIVATIVES AND THEIR USE IN TREATING CARDIAC AND CARDIOVASCULAR DISEASES” (priority 2010, published 2013) come the findings set out here.

One data set concerns the target T1, human beta2-adrenoceptor (Homo sapiens, UniProt P07550).
T1 construct: expressed in transfected cells; host or cells: CHO cells
Put plainly: 3H-CGP12177 whole-cell binding, CHO cells expressing human beta2-adrenoceptor. Particulars: 3H-CGP 12177 whole cell binding, mean ± s.e.mean; for Kd: log KD, read-out: Beta 2 Log KD (converted). The source says: (§1) The selectivity of a ligand is given by the ratio of beta-1 to beta-2 KD.

The target in the next data set is T2, human beta3-adrenoceptor (Homo sapiens, UniProt P13945).
T2 construct: expressed in transfected cells; host or cells: CHO cells
T2 sequence (P13945 whole entry): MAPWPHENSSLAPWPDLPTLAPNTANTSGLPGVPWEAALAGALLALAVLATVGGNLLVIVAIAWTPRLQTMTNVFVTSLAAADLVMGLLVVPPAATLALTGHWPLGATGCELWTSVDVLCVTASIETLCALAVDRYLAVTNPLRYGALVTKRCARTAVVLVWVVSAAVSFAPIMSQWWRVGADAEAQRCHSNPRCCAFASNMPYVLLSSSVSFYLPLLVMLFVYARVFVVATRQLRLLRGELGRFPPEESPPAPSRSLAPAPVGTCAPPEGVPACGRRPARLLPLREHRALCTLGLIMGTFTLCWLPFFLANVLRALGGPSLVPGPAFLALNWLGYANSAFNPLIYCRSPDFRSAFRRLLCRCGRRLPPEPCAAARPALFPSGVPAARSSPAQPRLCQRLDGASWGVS
Put plainly: 3H-CGP12177 whole-cell binding, CHO cells expressing human beta3-adrenoceptor. Particulars: 3H-CGP 12177 whole cell binding, log KD, mean ± s.e.mean, read-out: Beta 3 Log KD (converted).

The target of another data set is beta1-adrenoceptor (Homo sapiens, UniProt P08588). Put plainly: 3H-CGP12177 whole-cell binding, CHO cells expressing human beta1-adrenoceptor. The note with it: 3H-CGP 12177 whole cell binding, mean ± s.e.mean; for Kd: log KD, read-out: Beta 1 Log KD (converted). Further details: expressed in transfected cells; host or cells: CHO cells.
beta1-adrenoceptor, sequence (P08588 whole entry): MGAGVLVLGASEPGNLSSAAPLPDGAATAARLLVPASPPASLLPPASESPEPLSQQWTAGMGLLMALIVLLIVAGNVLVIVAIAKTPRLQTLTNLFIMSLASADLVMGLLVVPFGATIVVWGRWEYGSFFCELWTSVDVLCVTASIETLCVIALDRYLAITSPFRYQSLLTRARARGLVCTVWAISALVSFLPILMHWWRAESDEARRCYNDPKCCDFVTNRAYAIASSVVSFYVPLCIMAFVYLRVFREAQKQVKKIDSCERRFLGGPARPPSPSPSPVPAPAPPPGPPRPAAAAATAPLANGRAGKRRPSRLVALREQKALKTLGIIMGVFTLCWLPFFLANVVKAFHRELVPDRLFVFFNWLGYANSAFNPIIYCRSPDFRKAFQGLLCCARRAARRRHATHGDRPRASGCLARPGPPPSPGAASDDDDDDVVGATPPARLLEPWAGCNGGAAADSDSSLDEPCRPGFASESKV
Source text: as §1

T1 sequence (P07550 whole entry): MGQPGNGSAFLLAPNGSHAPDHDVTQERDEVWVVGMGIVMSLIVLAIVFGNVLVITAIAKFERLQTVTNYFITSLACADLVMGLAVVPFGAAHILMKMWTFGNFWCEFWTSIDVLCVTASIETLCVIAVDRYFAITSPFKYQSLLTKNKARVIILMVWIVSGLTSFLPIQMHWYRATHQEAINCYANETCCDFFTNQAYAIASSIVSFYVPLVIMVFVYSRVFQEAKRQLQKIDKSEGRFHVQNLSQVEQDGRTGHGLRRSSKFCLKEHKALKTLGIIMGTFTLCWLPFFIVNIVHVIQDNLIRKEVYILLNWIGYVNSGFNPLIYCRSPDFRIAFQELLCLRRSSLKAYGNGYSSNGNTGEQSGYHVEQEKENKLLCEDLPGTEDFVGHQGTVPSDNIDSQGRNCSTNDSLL

Compound `OC(CNCCOc1ccccc1)COc1ccc(OCCOC2CCCC2)cc1` (stereo not drawn) [compound 48, 1-(2-Phenoxyethylamino)-3-(4-(2-(cyclopentyloxy)ethoxy)phenoxy)propan-2-ol] registered a melting point of 155 to 157 °C. Besides, the Kd on human beta2-adrenoceptor is 0.912 µM. Also, at human beta3-adrenoceptor, the Kd was 4.47 µM. Moreover, at beta1-adrenoceptor, the Kd is 0.0347 µM.
Take `Cc1ccc(NC(=O)NCCNCC(O)COc2ccc(OCCOC3CCCC3)cc2)cc1` (stereo not drawn) [47d]: the melting point was 142 to 144 °C. Moreover, the Kd on human beta3-adrenoceptor was 22.9 µM. For the same compound, the “Beta 1 Log KD” value on beta1-adrenoceptor is recorded as −7.76 ± 0.04.
In turn, `O=C(NCCNCC(O)COc1ccc(OCCOC2CCCC2)cc1)c1cccc(F)c1` (stereo not drawn) [54h] had a melting point of 85 to 86 °C. For the same compound, the Kd on human beta2-adrenoceptor is 0.55 µM. Moreover, the Kd on human beta3-adrenoceptor was 1.12 µM. In addition, on beta1-adrenoceptor, the Kd is 0.0741 µM.
Compound `COc1cccc(NC(=O)NCCNCC(O)COc2ccc(OCCOC3CCCC3)cc2)c1` (stereo not drawn) [47f] had a melting point of 103 to 110 °C. Besides, the “Beta 2 Log KD” value on human beta2-adrenoceptor is −6.05 ± 0.03. Also, the Kd on human beta3-adrenoceptor was 17.4 µM. For the same compound, the “Beta 1 Log KD” value at beta1-adrenoceptor is −7.76 ± 0.03.
Take `O=C(NCCNCC(O)COc1ccc(OCCOC2CCCC2)cc1)Nc1ccccc1Cl` (stereo not drawn) [47k]: the melting point fell in the range of 99 to 103 °C. Further, the Kd at human beta3-adrenoceptor was 18.6 µM. For the same compound, the “Beta 1 Log KD” value at beta1-adrenoceptor was −7.11 ± 0.03.
The like results for `O=C(NCCNCC(O)COc1ccc(OCCOC2CCCC2)cc1)Nc1cccc(Br)c1` (stereo not drawn) [47o] were, in that order, 120 to 122 °C, 10.2 µM and −7.92 ± 0.05.
As for `CCOCCOc1ccc(OCC(O)CNCCNC(=O)Cc2cccc(O)c2)cc1` (stereo not drawn) [46h, N-(2-(3-(4-(2-ethoxyethoxy)phenoxy)-2-hydroxypropylamino)ethyl)-2-(3-hydroxyphenyl)acetamide], the Kd was 0.257 µM at human beta2-adrenoceptor, 9.33 µM on human beta3-adrenoceptor and 0.0447 µM on beta1-adrenoceptor.
For `O=C(Nc1ccccc1)OCCNCC(O)COc1ccc(OCCOC2CCCC2)cc1` (stereo not drawn) [compound 51, 2-(3-(4-(2-(Cyclopentyloxy)ethoxy)phenoxy)-2-hydroxypropylamino)ethyl phenylcarbamate], in that order: 0.468 µM, 1.05 µM and 0.0295 µM.
For `O=C(Cc1ccccc1)NCCNCC(O)COc1ccc(OCCOC2CCCC2)cc1` (stereo not drawn) [compound 49, N-(2-(3-(4-(2-(Cyclopentyloxy)ethoxy)phenoxy)-2-hydroxypropylamino)ethyl)-2-phenylacetamide Hydroformate], in that order: 0.0537 µM, 4.37 µM and 0.0038 µM.
The like results for `O=C(NCCNCC(O)COc1ccc(OCCOC2CCCC2)cc1)c1ccccc1O` (stereo not drawn) [54d] were, in that order, 0.501 µM, 4.57 µM and 0.0324 µM.
Consider `O=C(Cc1ccc(O)cc1)NCCNCC(O)COc1ccc(OCCOCC2CC2)cc1` (stereo not drawn) [46i, N-(2-(3-(4-(2-(cyclopropylmethoxy)ethoxy)phenoxy)-2 hydroxypropylamino)ethyl)-2-(4-hydroxyphenyl)acetamide], for which the figures for the Kd on human beta2-adrenoceptor, on human beta3-adrenoceptor and on beta1-adrenoceptor were 0.933 µM, 3.89 µM and 0.017 µM, respectively.
Turning to `O=C(NCCNCC(O)COc1ccc(OCCOC2CCCC2)cc1)Nc1ccccc1Br` (stereo not drawn) [47n], at human beta2-adrenoceptor, the “Beta 2 Log KD” value is on record as −6.10 ± 0.03. For the same compound, the Kd at human beta3-adrenoceptor is 14.8 µM. For the same compound, the “Beta 1 Log KD” value on beta1-adrenoceptor is listed as −7.11 ± 0.01.
Take `O=S(=O)(Cc1ccccc1)NCCNCC(O)COc1ccc(OCCOC2CCCC2)cc1` (stereo not drawn) [compound 53, N-(2-(3-(4-(2-(Cyclopentyloxy)ethoxy)phenoxy)-2-hydroxypropylamino)ethyl)-benzylsulfonamide]: the Kd at human beta2-adrenoceptor is 0.933 µM; at human beta3-adrenoceptor, 19.1 µM; on beta1-adrenoceptor, 0.0257 µM.
For `O=C(NCCNCC(O)COc1ccc(OCCOCC2CC2)cc1)Nc1cccc(Cl)c1` (stereo not drawn) [46e, 1-(2-(3-(4-(2-(Cyclopropylmethoxy)ethoxy)phenoxy)-2-hydroxypropylamino)ethyl)-3-(3-chlorophenyl)urea hydroformate], in that order: 5.75 µM, 8.51 µM and 0.0295 µM.
